Test results as given in article PMC6627609, “Targeting Quorum Sensing: High-Throughput Screening to Identify Novel LsrK Inhibitors” (International Journal of Molecular Sciences, 2019).
Counter-ions that a name gives are not always drawn. Like-named read-outs stand apart in the source and are kept apart here.

Target: LsrK (Salmonella typhimurium, UniProt Q8ZKQ6)
Assay: biochemical
Format: biochemical, S. typhimurium
Settings: for Inhibition (%): 50 µM

Sequence of LsrK (Q8ZKQ6 whole entry): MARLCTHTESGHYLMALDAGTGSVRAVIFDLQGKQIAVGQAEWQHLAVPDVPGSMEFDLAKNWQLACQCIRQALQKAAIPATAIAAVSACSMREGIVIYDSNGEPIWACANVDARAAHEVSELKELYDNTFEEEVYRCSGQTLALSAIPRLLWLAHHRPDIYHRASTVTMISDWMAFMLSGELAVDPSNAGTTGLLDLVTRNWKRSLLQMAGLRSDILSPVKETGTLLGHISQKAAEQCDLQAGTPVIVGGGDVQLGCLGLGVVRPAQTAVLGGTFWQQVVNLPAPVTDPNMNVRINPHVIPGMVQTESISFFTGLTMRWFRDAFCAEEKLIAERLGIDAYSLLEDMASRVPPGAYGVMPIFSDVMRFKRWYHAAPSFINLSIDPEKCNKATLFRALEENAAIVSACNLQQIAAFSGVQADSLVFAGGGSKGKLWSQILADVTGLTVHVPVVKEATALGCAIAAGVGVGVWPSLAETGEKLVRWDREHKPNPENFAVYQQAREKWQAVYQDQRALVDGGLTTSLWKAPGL

Compound | inhibition at 50 µM | further results
CN[C@H](CC(C)C)C(=O)N[C@H]1C(=O)N[C@@H](CC(N)=O)C(=O)N[C@H]2C(=O)N[C@H]3C(=O)N[C@H](C(=O)N[C@H](C(=O)O)c4cc(O)cc(O)c4-c4cc3ccc4O)[C@H](O)c3ccc(c(Cl)c3)Oc3cc2cc(c3O[C@@H]2O[C@H](CO)[C@@H](O)[C@H](O)[C@H]2O[C@H]2C[C@](C)(N)[C@H](O)[C@H](C)O2)Oc2ccc(cc2Cl)[C@H]1O [VANCOMYCIN HYDROCHLORIDE] | 0% | –
CC(=O)O[C@H]1C[C@@H](OC(C)=O)C(C)(C)[C@@H]2CC(=O)[C@]3(C)[C@H](CC[C@@]4(C)[C@H](c5ccoc5)OC(=O)[C@H]5O[C@]543)[C@@]12C [7-DEACETOXY-7-OXOKHIVORIN] | 133% | IC50: 3 µM
C=C[C@H]1C[N@@]2CC[C@H]1C[C@@H]2[C@@H](O)c1ccnc2ccccc12 [CINCHONINE] | 1% | –
O=C(O)CCC1NCC2CC1CN1CCCCC21 (stereo not drawn) [LUPANYL ACID HYDROCHLORIDE] | 1% | –
CC(=O)Oc1cc(-c2coc3cc(OC(C)=O)c(OC(C)=O)c(OC(C)=O)c3c2=O)cc(OC(C)=O)c1OC(C)=O [IRIGINOL HEXAACEATATE] | 114% | –
O=c1c(O)c(-c2ccc(O)cc2O)oc2cc(O)cc(O)c12 [MORIN] | 154% | –
Cc1cc(=O)[nH]c(=S)[nH]1 [METHYLTHIOURACIL] | 4% | –
COc1c(-c2coc3cc4c(cc3c2=O)CC(O)C(C)(C)O4)ccc2c1C=CC(C)(C)O2 (stereo not drawn) [MUNDULONE] | 0% | –
CC[C@H]1[C@@H]2C[C@H]3[C@@H]4N(C)c5ccccc5[C@]45C[C@@H]([C@H]2[C@H]5O)N3[C@@H]1O [AJMALINE] | 0% | –
CC[C@H](c1ccc(O)cc1)[C@@H](CC)c1ccc(O)cc1 [HEXESTROL] | 3% | –
Oc1c(Cl)cc(Cl)c2cccnc12 [CHLOROXINE] | 13% | –
CCCOc1ccc2nc(NC(=O)OC)[nH]c2c1 [OXIBENDAZOLE] | 2% | –
CCOc1ccc(C(=O)c2ccc(O)c(O)c2O)cc1 [2.3.4-TRIHYDROXY-4'-ETHOXYBENZOPHENONE] | – | Inhibition (%): 79
O=C([O-])C1=C(CSc2nnnn2CS(=O)(=O)[O-])CS[C@@H]2[C@H](NC(=O)[C@H](O)c3ccccc3)C(=O)N12.[Na+].[Na+] [CEFONICID SODIUM] | – | Inhibition (%): 0
CC(C)/C(O)=C1/C(=O)O[C@@H](c2ccoc2)[C@]2(C)C(O)[C@@H](O)[C@@]34OC5(C)OC67CC(C)(C(O)[C@]6(O)[C@@H](O)[C@]3(O5)C12)[C@H](CC(=O)O)[C@]74C (stereo partly drawn) [[…] OF BUSSEIN] | 1% | –
CC(C)(O/N=C(\C(=O)N[C@@H]1C(=O)N2C(C(=O)[O-])=C(C[n+]3ccccc3)CS[C@H]12)c1csc(N)n1)C(=O)O [CEFTAZIDIME] | 70% | –
COc1cc(CNC(=O)CCCC/C=C/C(C)C)ccc1O [CAPSAICIN] | 2% | –
O=C(CCNNC(=O)c1ccncc1)NCc1ccccc1 [NIALAMIDE] | 3% | –
O=C(O)c1nc2cc(Cl)c(Cl)cc2nc1O [6.7-DICHLORO-3-HYDROXY-2-QUINOXALINECARBOXYLIC ACID] | – | Inhibition (%): 1
CC(=O)O[C@@H]1C[C@]2(C)[C@@H](C(C)=O)CC[C@H]2[C@@H]2CCC3=CC(=O)CC[C@]3(C)[C@H]21 [11a-ACETOXYPROGESTERONE] | – | Inhibition (%): 23
CC1(C)C2CC(=O)[C@]3(C)C(CC[C@@]4(C)[C@H](c5ccoc5)OC(=O)C5OC543)[C@@]2(C)[C@@H](O)C[C@H]1O (stereo partly drawn) | – | Inhibition (%): 2
CN1CCC[C@H]1c1cccnc1.O=C(O)C(O)C(O)C(=O)O.O=C(O)C(O)C(O)C(=O)O [NICOTINE DITARTRATE] | – | Inhibition (%): 0
CCn1cc(C(=O)O)c(=O)c2cc3c(cc21)OCO3 [OXOLINIC ACID] | 1% | –

Compound | inhibition at 50 µM | further results
CC(C)(C)NC[C@H](O)c1ccc(O)c(CO)c1 [LEVALBUTEROL HYDROCHLORIDE] | 8% | –
Clc1ccc(C(Cn2ccnc2)OCc2ccsc2Cl)c(Cl)c1 (stereo not drawn) [TIOCONAZOLE] | 2% | –
OC[C@H]1O[C@@H](O[C@H]2[C@H](O)[C@@H](O)[C@H](O)O[C@@H]2CO)[C@H](O)[C@@H](O)[C@@H]1O [CELLOBIOSE (D[+])] | – | Inhibition (%): 0
C/C1=C2/[N-][C@H]([C@H](CC(N)=O)[C@@]2(C)CCC(=O)NC[C@@H](C)OP(=O)([O-])O[C@H]2[C@@H](O)[C@@H](n3cnc4cc(C)c(C)cc43)O[C@@H]2CO)[C@]2(C)N=C(/C(C)=C3N=C(/C=C4N=C1[C@@H](CCC(N)=O)C\4(C)C)[C@@H](CCC(N)=O)[C@]\3(C)CC(N)=O)[C@@H](CCC(N)=O)[C@]2(C)CC(N)=O.[CH2-][C@H]1O[C@@H](n2cnc3c(N)ncnc32)[C@H](O)[C@@H]1O.[Co] [COENZYME B12] | – | Inhibition (%): 20
C[C@H](N)[C@H](O)c1cccc(O)c1 [METARAMINOL BITARTRATE] | 9% | –
COc1ncnc(NS(=O)(=O)c2ccc(N)cc2)c1OC [SULFADOXINE] | 1% | –
COC1(C)CCC2OC2(C)CCC2C1CC2(C)C (stereo not drawn) [2-METHOXY-5 (6)EPOXY-TETRAHYDROCARYOPHYLLENE] | 0% | –
CC(=O)c1c(O)c(C)c(O)c2c1OC1=CC(=O)C(C(C)=O)C(=O)C12C (stereo not drawn) [USNIC ACID] | 204% | –
O=C(/C=C/c1ccccc1)c1ccc(O)cc1O [2'.4'-DIHYDROXYCHALCONE] | – | Inhibition (%): 19
CO[C@H]1/C=C/O[C@@]2(C)Oc3c(C)c(O)c4c(O)c(c5c(nc6cc(C)ccn65)c4c3C2=O)NC(=O)/C(C)=C\C=C\[C@H](C)[C@H](O)[C@@H](C)[C@@H](O)[C@@H](C)[C@H](OC(C)=O)[C@@H]1C [RIFAXIMIN] | 1% | –
C=CCSCC1Nc2cc(Cl)c(S(N)(=O)=O)cc2S(=O)(=O)N1 (stereo not drawn) [ALTHIAZIDE] | 2% | –
CNC(=C[N+](=O)[O-])NCCSCc1ccc(CN(C)C)o1 [RANITIDINE] | 1% | –
O=C([O-])c1ccccc1-c1c2cc(I)c(=O)c(I)c-2oc2c(I)c([O-])c(I)cc12.[Na+].[Na+] [ERYTHROSINE SODIUM] | – | Inhibition (%): 69
C[N+]1(C)CCOC(O)(c2ccc(-c3ccc(C4(O)C[N+](C)(C)CCO4)cc3)cc2)C1.[Br-].[Br-] (stereo not drawn) [HEMICHOLINIUM BROMIDE] | – | Inhibition (%): 1
O=C(/C=C/c1ccc(O)c(O)c1)O[C@H](Cc1ccc(O)c(O)c1)C(=O)O [ROSMARINIC ACID] | 2% | –
COc1c(O)cc2c(c1O)[C@@H]1O[C@H](CO)[C@@H](O)[C@H](O)[C@H]1OC2=O [BERGENIN] | 0% | –
NS(=O)(=O)c1cc2c(cc1C(F)(F)F)NC(Cc1ccccc1)NS2(=O)=O (stereo not drawn) [BENDROFLUMETHIAZIDE] | 0% | –
CCCCN(CCCC)CCCOC(=O)c1ccc(N)cc1 [BUTACAINE] | 3% | –
CCOc1nc2cccc(C(=O)OC(C)OC(=O)OC3CCCCC3)c2n1Cc1ccc(-c2ccccc2-c2nn[nH]n2)cc1 (stereo not drawn) [CANDESARTAN CILEXTIL, reference compound] | – | Inhibition (%): 101; IC50 (read-out: IC50 against LsrK): 14 µM
Cl.NCCS [CYSTEAMINE HYDROCHLORIDE] | – | Inhibition (%): 19
O=c1c(-c2ccc(O)cc2)coc2cc(O)cc(O)c12 [GENISTEIN] | 2% | –
CCC(=O)O[C@]1(C(=O)CCl)[C@@H](C)C[C@H]2[C@@H]3CCC4=CC(=O)C=C[C@]4(C)[C@@]3(F)[C@@H](O)C[C@@]21C [CLOBETASOL PROPIONATE] | 2% | –
CCCc1nc(C(C)(C)O)c(C(=O)OCc2oc(=O)oc2C)n1Cc1ccc(-c2ccccc2-c2nnn[nH]2)cc1 [OLMESARTAN MEDOXOMIL] | 0% | –

Compound | inhibition at 50 µM | further results
CC(C)c1ccc2c(c1)CCC1[C@](C)(CN)CCC[C@]21C.O=S(=O)(O)O (stereo partly drawn) [18-AMINOABIETA-8.11.13-TRIENE SULFATE] | – | Inhibition (%): 1
N=C(N)NC(=O)c1nc(Cl)c(N)nc1N [AMILORIDE HYDROCHLORIDE] | 1% | –
CCCCOc1ccc(C(=O)CCN2CCCCC2)cc1 [DYCLONINE HYDROCHLORIDE] | 131% | –
O=C1CN(/N=C/c2ccc(-c3ccc([N+](=O)[O-])cc3)o2)C(O)=N1 [DANTROLENE SODIUM] | 3% | –
COC(=O)Nc1nc2ccc(C(=O)c3ccccc3)cc2[nH]1 [MEBENDAZOLE] | 1% | –
CCCCCC1C(=O)CCC1CC(=O)O (stereo not drawn) [DIHYDROJASMONIC ACID] | 1% | –
CC(C)CC(N(C)C)C1(c2ccc(Cl)cc2)CCC1.Cl (stereo not drawn) [SIBUTRAMINE HYDROCHLORIDE] | – | Inhibition (%): 1
C[C@H]1[C@@H](O)O[C@@H]2O[C@@]3(C)CC[C@H]4[C@H](C)CC[C@@H]1[C@@]24OO3 [ARTENIMOL] | 0% | –
CC(=O)[C@H]1CC[C@H]2[C@@H]3CC=C4C[C@@H](OC(=O)CCC(=O)O)CC[C@]4(C)[C@H]3CC[C@]12C [PREGNENOLONE SUCCINATE] | 4% | –
c1ccc2c(c1)sc1ccccc12 [DIBENZOTHIOPHENE] | 0% | –
N#Cc1ccc2c(c1)N(CCCN1CCC(O)CC1)c1ccccc1S2 [PERICIAZINE] | 4% | –
CC1=C(CC(=O)O)c2cc(F)ccc2/C1=C\c1ccc([S+](C)[O-])cc1 (stereo not drawn) | 21% | –
CC1(C)C(=O)C=C[C@]2(C)[C@H]3CC[C@@]4(C)[C@H](c5ccoc5)OC(=O)[C@H]5O[C@]54[C@]3(C)C=C[C@@H]12 [7-DESACETOXY-6.7-DEHYDROGEDUNIN] | – | Inhibition (%): 33
COC(=O)C[C@H]1C(C)(C)C(=O)[C@@H]2CC3C4=CC(=O)O[C@@H](c5ccoc5)[C@]4(C)CC[C@@H]3[C@@]1(C)C2=O (stereo partly drawn) [CARAPIN] | 2% | –
Cl.c1cnc(N2CCN(Cc3ccc4c(c3)OCO4)CC2)nc1 [PIRIBEDIL HYDROCHLORIDE] | – | Inhibition (%): 3
3-BROMO-4-METHYL-3.4-HEXAMETHYLENE-3.4-DIHYDRODIAZETE-1.2-DIOXIDE | – | Inhibition (%): 1
O=C(O)CCCCCCCC(=O)O [AZELAIC ACID] | 3% | –
CC(COc1ccccc1)N(CCCl)Cc1ccccc1 (stereo not drawn) [PHENOXYBENZAMINE HYDROCHLORIDE] | 1% | –
O=C(O)c1ccccc1OP(=O)(O)O [FOSFOSAL] | 0% | –
COC[C@]12CN(C=O)[C@@H]3[C@@H]4[C@H](OC)[C@H]1[C@@]3([C@@H](OC)C[C@H]2O)[C@@H]1C[C@@]2(O)[C@H](OC(=O)c3ccccc3)[C@@H]1[C@]4(OC(C)=O)[C@@H](O)[C@@H]2OC [OXONITINE] | – | Inhibition (%): 0
C=C1CCC2C(CC2(C)C)C(=O)CCC1O (stereo not drawn) [ISOKOBUSONE] | 3% | –
